A short description of series [1]: in vitro. To be noted: plasma.
A short description of series [2]: physchem. The note with it: octanol/aqueous phosphate buffered saline, pH 7.4.
Series [3] is described as follows: physchem. To be noted: aqueous, pH 7.4.
A short description of series [4]: in vivo. To be noted: Sprague-Dawley, rat, po, 5 mg/kg.
A short description of series [5]: in vitro. The note with it: human, plasma.
A short description of series [6]: in vitro. To be noted: mouse, plasma.
Series [7] is described as follows: in vivo. To be noted: Sprague-Dawley, rat, po, 5 mg/kg. The source holds these as a separate data set.
A short description of series [8]: in vivo. The note with it: mouse, po, 5 mg/kg.
Series [9] can be described thus: in vitro. The note with it: rat, plasma.

Molecules are shown by their SMILES. In brackets after ≈: the same amount, converted by molar mass.

Consider `O=C(Nc1ccncc1)c1c(Cl)cccc1Cl`, for which the fraction unbound (in general, the share of the substance not bound to proteins or other matrix) in the series “in vitro [1]” is 0.3. Moreover, in the series “physchem [2]”, the logD (commonly the decadic logarithm of the distribution of all forms, ionised or not, between an organic phase and buffer at a given pH) at 1 h worked out at 2.2. Moreover, the concentration in solution in “physchem [3]” (solubility) was 630 µg/mL (≈ 2360 µM).
Regarding `O=C(Nc1ccnc(NC(=O)C2CC2)c1)c1c(Cl)cccc1Cl`, the bioavailability in the series “in vivo [4]” was found to be 105%. The fraction unbound in the series “in vitro [5]” was 0.05; in the series “in vitro [6]”, 0.04; in the series “in vitro [9]” it was 0.04. In addition, the Cmax (in general, the highest concentration seen after dosing) in the series “in vivo [7]” was 2500 nM; in the series “in vivo [8]”, 1600 nM.

(Values after ChEMBL document CHEMBL2417497, “Lead identification of novel and selective TYK2 inhibitors” (Eur J Med Chem, 2013).)
